Results reported in US20090289071A1, “Flow Through Components with an Antimicrobial Lining” (THE BOC GROUP, INC., priority 2004, published 2009).

Experiments:
[1] = not given; remark: listed apart in the source
[2] = estimated; called medium value

Compound: CCCCNC(=O)[N-]S(=O)(=O)c1ccc(C)cc1.[Ag+] [AgTol, silver tolbutamide]
- light stability (as a solid): light stable
- photostability (present in a coating): not photostable
- solubility compared with silver sulfadiazine ([1]; relative to silver sulfadiazine): considerably greater than that of silver sulfadiazine
- solubility ([1]; variety of organic solvents, including solvents containing polymers): soluble in a variety of organic solvents
- dissociation constant (pK) [2]: > 3.3
